Assay results taken from the supplement of paper PMC10307832.

Assays:
Test in all cases: relative viability (nuclei count vs DMSO), 5 days (fraction); higher = more cells survive
Seliciclib + Lapatinib = compound: CC[C@H](CO)Nc1nc(NCc2ccccc2)c2ncn(C(C)C)c2n1 [Seliciclib] + CS(=O)(=O)CCNCc1ccc(-c2ccc3ncnc(Nc4ccc(OCc5cccc(F)c5)c(Cl)c4)c3c2)o1 [Lapatinib] (partner 2 µM)
Procedure, shortened: (§1)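 Relative viability equals treated-well nuclei counts divided by vehicle-well nuclei counts. Counts came from 4× images of lung cancer cell lines grown in 1536-well plates for 5 days after pin-tool dosing on the day after seeding. Dosing used one drug alone or a fixed anchor-drug dose plus five library-drug doses (not always all listed) in √10 steps, and values are medians of duplicate plates.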

Seliciclib + Crizotinib = compound: CC[C@H](CO)Nc1nc(NCc2ccccc2)c2ncn(C(C)C)c2n1 [Seliciclib] + C[C@@H](Oc1cc(-c2cnn(C3CCNCC3)c2)cnc1N)c1c(Cl)ccc(F)c1Cl [Crizotinib] (partner 1 µM)
Procedure, shortened: as §1

Seliciclib + Dasatinib = compound: CC[C@H](CO)Nc1nc(NCc2ccccc2)c2ncn(C(C)C)c2n1 [Seliciclib] + Cc1nc(Nc2ncc(C(=O)Nc3c(C)cccc3Cl)s2)cc(N2CCN(CCO)CC2)n1 [Dasatinib] (partner 0.075 µM)
Procedure, shortened: as §1

Seliciclib + Pemetrexed = compound: CC[C@H](CO)Nc1nc(NCc2ccccc2)c2ncn(C(C)C)c2n1 [Seliciclib] + Nc1nc2[nH]cc(CCc3ccc(C(=O)N[C@@H](CCC(=O)O)C(=O)O)cc3)c2c(=O)[nH]1 [Pemetrexed] (partner 0.2 µM)
Procedure, shortened: as §1

Cell Line	relative viability (Seliciclib + Lapatinib; first compound 0.08 µM)	relative viability (Seliciclib + Lapatinib; first compound 0.253 µM)	relative viability (Seliciclib + Lapatinib; first compound 0.8 µM)	relative viability (Seliciclib + Lapatinib; first compound 2.53 µM)	relative viability (Seliciclib + Lapatinib; first compound 8 µM)	relative viability (Seliciclib + Crizotinib; first compound 0.08 µM)	relative viability (Seliciclib + Crizotinib; first compound 0.253 µM)	relative viability (Seliciclib + Crizotinib; first compound 0.8 µM)	relative viability (Seliciclib + Crizotinib; first compound 2.53 µM)	relative viability (Seliciclib + Crizotinib; first compound 8 µM)	relative viability (Seliciclib + Dasatinib; first compound 0.08 µM)	relative viability (Seliciclib + Dasatinib; first compound 0.253 µM)	relative viability (Seliciclib + Dasatinib; first compound 0.8 µM)	relative viability (Seliciclib + Dasatinib; first compound 2.53 µM)	relative viability (Seliciclib + Dasatinib; first compound 8 µM)	relative viability (Seliciclib + Pemetrexed; first compound 0.08 µM)	relative viability (Seliciclib + Pemetrexed; first compound 0.253 µM)	relative viability (Seliciclib + Pemetrexed; first compound 0.8 µM)	relative viability (Seliciclib + Pemetrexed; first compound 2.53 µM)	relative viability (Seliciclib + Pemetrexed; first compound 8 µM)
LK-2	0.946	0.91	0.871	0.747	0.452	0.246	0.227	0.205	0.227	0.249	0.305	0.414	0.436	0.226	0.217	0.25	0.274	0.266	0.166	0.195
NCI-H661	0.522	0.463	0.473	0.452	0.391	0.98	1.12	0.939		0.894	0.832	1.03	0.9	0.739	0.547	0.839	1.03	0.921	0.82	0.806
NCI-H358	0.429	0.5	0.407	0.305	0.253	0.54	0.709	0.546	0.544	0.246	0.196	0.153	0.148	0.129	0.137	0.17	0.178	0.167	0.159	0.169
HCC-366	1.01	1.15	0.987	1.22	0.863	0.477	0.418	0.497	0.946	0.354	0.565	0.376	0.57	0.381	0.473	0.153	0.327	0.212	0.295	0.241
HOP-62	0.937	0.931	1.04	1.06	0.864	1.02	0.981	0.976	0.781	0.898	0.661	0.58	0.578	0.603	0.653	0.285	0.326	0.383	0.339	0.351
NCI-H1648																0.767	0.922	0.963	0.675	0.591
SW 1573	1.09	1.06	1.02	1.1	0.869	0.823	0.759	0.77	0.847	0.642	0.608	0.525	0.524	0.35	0.301	0.875	0.723	0.886	0.791	0.731
LU99A	1.01	0.923	1.02	0.666	0.537	0.477	0.544	0.52	0.422	0.4	0.611	0.521	0.588	0.262	0.507	0.172	0.211	0.204	0.197	0.188
NCI-H441						0.896	0.631	0.833	0.66	0.519	0.732	0.848	0.536	0.339	0.601	0.232	0.246	0.228	0.249	0.276
EBC-1	0.25	0.225	0.251	0.23	0.227	0.199	0.226	0.199	0.201	0.213										
HCC-44	0.972	1.08	0.981	0.933	0.925	0.709	0.842	0.778	0.821	0.698						0.631	0.676	0.684	0.617	0.645
SW 900											0.541	0.593	0.661	0.397	0.559	0.515	0.501	0.484	0.451	0.406
ABC-1	1.18	1.06	1.19	1.17	0.894	1.2	1.46	0.814	1.08	0.495	0.536	0.566	0.598	0.524	0.509					
NCI-H1395	1.03	0.811	1.09	0.871	0.861						0.464	0.406	0.428	0.361	0.368	0.932	0.757	0.854		0.756
NCI-H1299	0.953	1.06	0.997	0.962	0.948	0.983	1.07	0.935	0.993	0.943										
ChaGo-K-1						1.14	1.01	1.12	1.12	0.488	0.588	0.637	0.661	0.478	0.495	0.25	0.253	0.264	0.251	0.251
NCI-H1793	0.888	0.54	0.583	0.77	0.655						0.33	0.323	0.414	0.37	0.482	0.842	0.741	0.77	0.857	0.912
NCI-H522											1.06	0.827	1.05	0.82	0.834	1.11	0.917	1.18	1.01	0.914
A549	1	0.913	0.991	0.981	0.623	0.674	0.82	0.799	0.809	0.591										
IA-LM	0.537	1.07	0.719	0.977	0.82	0.596	1.17	0.92	0.906	0.622										
LCLC-103H						1.02	1.04	0.955	0.975	0.919	0.535	0.499	0.57	0.276	0.481	0.377	0.439	0.514	0.456	0.494
Calu-6	0.993	1.13	1.08	1.08	0.934	0.773	0.846	0.825	0.956	0.668										
